Test results as given in the kinase profiling compilation of Christmann-Franck et al. (2016).
Several values for one entry are separate records, joined by “and”; a condition that tells them apart may be missing. Equal entries are not always repeated.

Experiments:
Test in all cases: radiometric filter-binding kinase assay, Kinaseprofiler
MUSK (human) = MUSK (human) (UniProt O15146); conditions: ATP 155 µM
RPS6KA5 KD1 KD2 (human) = RPS6KA5 KD1 KD2 (human) (UniProt O75582); conditions: ATP 90 µM
DAPK2 (human) = DAPK2 (human) (UniProt Q9UIK4); conditions: ATP 10 µM
PIM1 (human) = PIM1 (human) (UniProt P11309); conditions: ATP 90 µM
RET (human) = RET (human) (UniProt P07949); conditions: ATP 70 µM
RPS6KA2 KD1 KD2 (human) = RPS6KA2 KD1 KD2 (human) (UniProt Q15349); conditions: ATP 10 µM
PAK3 (human) = PAK3 (human) (UniProt O75914); conditions: ATP 120 µM
MTOR (human) = MTOR (human) (UniProt P42345); conditions: ATP 70 µM
ALK (human) = ALK (human) (UniProt Q9UM73); conditions: ATP 200 µM
STK24 (human) = STK24 (human) (UniProt Q9Y6E0); conditions: ATP 15 µM
LCK (human) = LCK (human) (UniProt P06239); conditions: compound 1.0 µM; ATP 90 µM
MELK (human) = MELK (human) (UniProt Q14680); conditions: ATP 45 µM
VRK2 (human) = VRK2 (human) (UniProt Q86Y07); conditions: ATP 70 µM
IKBKB (human) = IKBKB (human) (UniProt O14920); conditions: ATP 10 µM
MINK1 (human) = MINK1 (human) (UniProt Q8N4C8); conditions: ATP 185 µM
[1] = tested on: TAOK3 (human), Q9H2K8 [N47S]; conditions: ATP 15 µM
TAOK1 (human) = TAOK1 (human) (UniProt Q7L7X3); conditions: ATP 10 µM
NEK3 (human) = NEK3 (human) (UniProt P51956); conditions: ATP 120 µM
MAP3K9 (human) = MAP3K9 (human) (UniProt P80192); conditions: ATP 45 µM
BTK (human) = BTK (human) (UniProt Q06187); conditions: ATP 200 µM
RPS6KA4 KD1 KD2 (human) = RPS6KA4 KD1 KD2 (human) (UniProt O75676); conditions: ATP 45 µM
EPHA3 (human) = EPHA3 (human) (UniProt P29320); conditions: ATP 120 µM
DAPK3 (human) = DAPK3 (human) (UniProt O43293); conditions: ATP 15 µM
PIM3 (human) = PIM3 (human) (UniProt Q86V86); conditions: ATP 155 µM
PDGFRB (human) = PDGFRB (human) (UniProt P09619); conditions: ATP 200 µM
CDK7 CCNH MNAT1 (human) = CDK7 CCNH MNAT1 (human) (UniProt P50613+P51948+P51946); conditions: ATP 90 µM
MAPK14 (human) = MAPK14 (human) (UniProt Q16539); conditions: ATP 90 µM
TBK1 (human) = TBK1 (human) (UniProt Q9UHD2); conditions: ATP 155 µM
PLK2 (human) = PLK2 (human) (UniProt Q9NYY3); conditions: ATP 120 µM
CAMK4 (human) = CAMK4 (human) (UniProt Q16566); conditions: ATP 10 µM
LIMK1 (human) = LIMK1 (human) (UniProt P53667); conditions: ATP 15 µM
[2] = biological target: PRKAA1 PRKAB1 PRKAG1 (human) (UniProt P54619+Q13131+Q9Y478); conditions: ATP 45 µM

Sequence of MUSK (human) (O15146 whole entry, looked up): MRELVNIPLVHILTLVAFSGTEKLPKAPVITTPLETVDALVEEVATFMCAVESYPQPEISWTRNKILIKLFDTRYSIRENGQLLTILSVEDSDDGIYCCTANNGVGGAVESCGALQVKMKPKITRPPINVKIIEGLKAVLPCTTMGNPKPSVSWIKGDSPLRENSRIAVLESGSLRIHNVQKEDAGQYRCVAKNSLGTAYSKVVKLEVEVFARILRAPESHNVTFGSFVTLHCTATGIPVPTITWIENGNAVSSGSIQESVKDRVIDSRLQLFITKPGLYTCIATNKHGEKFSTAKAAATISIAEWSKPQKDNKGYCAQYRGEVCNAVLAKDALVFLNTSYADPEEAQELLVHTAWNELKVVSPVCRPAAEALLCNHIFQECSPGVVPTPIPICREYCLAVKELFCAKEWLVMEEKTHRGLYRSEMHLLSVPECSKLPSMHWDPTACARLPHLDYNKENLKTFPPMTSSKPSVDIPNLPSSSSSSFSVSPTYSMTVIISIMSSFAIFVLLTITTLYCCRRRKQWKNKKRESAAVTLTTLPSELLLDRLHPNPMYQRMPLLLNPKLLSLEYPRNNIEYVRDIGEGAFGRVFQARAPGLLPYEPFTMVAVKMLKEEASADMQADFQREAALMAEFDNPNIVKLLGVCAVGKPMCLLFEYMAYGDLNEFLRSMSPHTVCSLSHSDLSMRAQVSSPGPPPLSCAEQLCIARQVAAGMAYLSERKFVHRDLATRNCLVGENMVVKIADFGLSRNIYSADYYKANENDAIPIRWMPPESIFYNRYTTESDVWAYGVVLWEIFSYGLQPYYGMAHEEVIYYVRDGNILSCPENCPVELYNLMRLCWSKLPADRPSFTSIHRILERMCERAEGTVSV
Sequence of PIM1 (human) (P11309 whole entry, looked up): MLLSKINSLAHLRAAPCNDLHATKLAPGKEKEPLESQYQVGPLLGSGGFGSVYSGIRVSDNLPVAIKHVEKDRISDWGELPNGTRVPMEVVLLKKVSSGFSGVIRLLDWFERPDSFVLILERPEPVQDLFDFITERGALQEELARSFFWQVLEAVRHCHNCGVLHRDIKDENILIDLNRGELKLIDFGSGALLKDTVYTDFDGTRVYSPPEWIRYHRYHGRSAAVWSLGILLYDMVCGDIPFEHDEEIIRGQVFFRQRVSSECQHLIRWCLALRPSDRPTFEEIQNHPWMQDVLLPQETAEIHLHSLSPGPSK
Sequence of PAK3 (human) (O75914 whole entry, looked up): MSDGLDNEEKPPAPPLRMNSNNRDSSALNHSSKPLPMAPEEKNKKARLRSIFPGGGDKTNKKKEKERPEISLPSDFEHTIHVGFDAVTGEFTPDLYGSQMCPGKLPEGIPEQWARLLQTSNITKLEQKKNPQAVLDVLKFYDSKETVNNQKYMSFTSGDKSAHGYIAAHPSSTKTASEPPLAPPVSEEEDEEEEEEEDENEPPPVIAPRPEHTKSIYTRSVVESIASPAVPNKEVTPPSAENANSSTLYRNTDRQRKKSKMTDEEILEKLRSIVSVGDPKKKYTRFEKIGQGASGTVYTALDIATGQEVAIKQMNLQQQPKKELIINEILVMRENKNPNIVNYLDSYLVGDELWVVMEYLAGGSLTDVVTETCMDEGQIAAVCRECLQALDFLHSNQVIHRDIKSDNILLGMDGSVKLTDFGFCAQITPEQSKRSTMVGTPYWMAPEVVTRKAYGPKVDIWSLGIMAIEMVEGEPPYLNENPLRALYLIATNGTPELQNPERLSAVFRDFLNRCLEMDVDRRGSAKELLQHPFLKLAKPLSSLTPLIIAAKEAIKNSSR
Sequence of BTK (human) (Q06187 whole entry, looked up): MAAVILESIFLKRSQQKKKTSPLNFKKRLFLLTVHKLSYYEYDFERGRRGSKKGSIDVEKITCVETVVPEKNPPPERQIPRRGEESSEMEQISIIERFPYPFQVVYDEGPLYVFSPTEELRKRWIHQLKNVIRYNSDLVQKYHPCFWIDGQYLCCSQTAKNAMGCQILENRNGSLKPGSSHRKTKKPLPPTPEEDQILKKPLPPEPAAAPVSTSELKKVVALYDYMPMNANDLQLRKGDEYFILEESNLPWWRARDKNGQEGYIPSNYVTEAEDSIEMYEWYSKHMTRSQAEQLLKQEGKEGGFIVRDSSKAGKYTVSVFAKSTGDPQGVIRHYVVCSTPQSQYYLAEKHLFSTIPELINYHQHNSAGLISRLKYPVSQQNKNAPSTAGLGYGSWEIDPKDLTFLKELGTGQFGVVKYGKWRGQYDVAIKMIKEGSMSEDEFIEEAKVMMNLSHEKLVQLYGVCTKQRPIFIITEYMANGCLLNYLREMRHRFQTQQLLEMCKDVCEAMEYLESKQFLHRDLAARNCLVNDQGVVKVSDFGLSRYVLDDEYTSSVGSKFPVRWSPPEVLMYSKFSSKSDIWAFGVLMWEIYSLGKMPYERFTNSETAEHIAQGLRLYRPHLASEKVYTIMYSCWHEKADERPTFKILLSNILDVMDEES
Sequence of PDGFRB (human) (P09619 whole entry, looked up): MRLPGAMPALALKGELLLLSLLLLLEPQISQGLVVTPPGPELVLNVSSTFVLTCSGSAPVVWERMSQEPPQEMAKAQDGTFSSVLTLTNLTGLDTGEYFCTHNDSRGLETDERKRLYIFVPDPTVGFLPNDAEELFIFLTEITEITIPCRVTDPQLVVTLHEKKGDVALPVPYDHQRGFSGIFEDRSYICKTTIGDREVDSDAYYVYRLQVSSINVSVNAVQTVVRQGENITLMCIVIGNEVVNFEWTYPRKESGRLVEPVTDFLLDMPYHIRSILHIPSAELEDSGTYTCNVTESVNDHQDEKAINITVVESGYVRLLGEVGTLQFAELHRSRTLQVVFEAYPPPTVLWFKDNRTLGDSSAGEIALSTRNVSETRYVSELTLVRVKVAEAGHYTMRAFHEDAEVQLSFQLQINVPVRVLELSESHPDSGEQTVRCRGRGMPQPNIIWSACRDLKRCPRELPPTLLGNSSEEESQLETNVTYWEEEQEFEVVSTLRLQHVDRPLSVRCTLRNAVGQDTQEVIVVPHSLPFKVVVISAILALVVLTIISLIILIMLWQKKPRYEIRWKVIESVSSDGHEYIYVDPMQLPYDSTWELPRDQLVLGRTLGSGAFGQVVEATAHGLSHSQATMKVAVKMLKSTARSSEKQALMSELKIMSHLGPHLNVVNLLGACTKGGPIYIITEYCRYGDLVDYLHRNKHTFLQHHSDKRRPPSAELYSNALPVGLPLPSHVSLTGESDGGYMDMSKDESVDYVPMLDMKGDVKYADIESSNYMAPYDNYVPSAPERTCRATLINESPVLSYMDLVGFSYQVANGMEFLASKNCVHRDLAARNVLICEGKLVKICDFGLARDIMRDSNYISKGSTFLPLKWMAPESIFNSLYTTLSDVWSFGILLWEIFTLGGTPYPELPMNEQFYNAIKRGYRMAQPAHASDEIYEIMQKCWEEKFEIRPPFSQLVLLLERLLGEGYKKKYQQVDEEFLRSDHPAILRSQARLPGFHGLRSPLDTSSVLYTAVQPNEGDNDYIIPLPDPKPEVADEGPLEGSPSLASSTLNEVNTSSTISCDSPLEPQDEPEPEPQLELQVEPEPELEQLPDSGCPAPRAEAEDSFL
Sequence of CDK7 CCNH MNAT1 (human) (P50613 whole entry, looked up): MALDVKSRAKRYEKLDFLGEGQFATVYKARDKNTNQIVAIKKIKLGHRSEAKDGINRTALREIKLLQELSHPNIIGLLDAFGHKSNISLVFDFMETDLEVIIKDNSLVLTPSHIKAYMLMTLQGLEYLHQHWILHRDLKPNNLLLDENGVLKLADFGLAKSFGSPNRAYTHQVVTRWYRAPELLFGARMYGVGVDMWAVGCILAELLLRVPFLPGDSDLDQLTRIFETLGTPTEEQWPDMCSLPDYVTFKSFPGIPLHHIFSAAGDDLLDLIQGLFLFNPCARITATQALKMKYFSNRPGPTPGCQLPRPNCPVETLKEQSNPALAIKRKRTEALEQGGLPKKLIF
Sequence of CDK7 CCNH MNAT1 (human) (P51946 whole entry, looked up): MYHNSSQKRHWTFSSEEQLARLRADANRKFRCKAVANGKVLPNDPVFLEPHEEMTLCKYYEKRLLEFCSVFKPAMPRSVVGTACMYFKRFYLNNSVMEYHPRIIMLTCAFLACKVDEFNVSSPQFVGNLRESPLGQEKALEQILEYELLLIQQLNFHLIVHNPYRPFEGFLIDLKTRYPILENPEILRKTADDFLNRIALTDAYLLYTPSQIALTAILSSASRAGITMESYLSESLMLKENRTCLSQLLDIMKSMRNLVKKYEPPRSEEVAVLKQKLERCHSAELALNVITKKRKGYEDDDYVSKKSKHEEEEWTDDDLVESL
Sequence of CDK7 CCNH MNAT1 (human) (P51948 whole entry, looked up): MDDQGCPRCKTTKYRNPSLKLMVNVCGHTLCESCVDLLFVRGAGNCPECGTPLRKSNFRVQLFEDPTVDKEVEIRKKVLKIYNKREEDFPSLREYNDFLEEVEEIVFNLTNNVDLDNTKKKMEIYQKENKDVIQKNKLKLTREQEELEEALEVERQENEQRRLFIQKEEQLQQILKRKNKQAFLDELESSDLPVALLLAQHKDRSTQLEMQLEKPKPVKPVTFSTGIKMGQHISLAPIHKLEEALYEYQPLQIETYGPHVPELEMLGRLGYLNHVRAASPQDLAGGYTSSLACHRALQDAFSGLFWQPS
Sequence of CAMK4 (human) (Q16566 whole entry, looked up): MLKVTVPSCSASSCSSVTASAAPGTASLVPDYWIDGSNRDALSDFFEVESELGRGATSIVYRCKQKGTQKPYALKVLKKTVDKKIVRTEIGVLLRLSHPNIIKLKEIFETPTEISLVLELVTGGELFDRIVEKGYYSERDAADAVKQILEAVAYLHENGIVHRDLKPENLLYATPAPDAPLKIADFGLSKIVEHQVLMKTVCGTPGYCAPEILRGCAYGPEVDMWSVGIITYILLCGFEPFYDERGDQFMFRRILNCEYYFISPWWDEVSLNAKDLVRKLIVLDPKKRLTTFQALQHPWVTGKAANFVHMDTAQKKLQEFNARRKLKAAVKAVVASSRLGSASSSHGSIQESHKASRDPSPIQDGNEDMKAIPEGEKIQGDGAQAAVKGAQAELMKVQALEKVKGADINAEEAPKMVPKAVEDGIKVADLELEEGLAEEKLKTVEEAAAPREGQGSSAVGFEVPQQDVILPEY

residual activity (MUSK (human); compound 1.0 µM): 60%
residual activity (MUSK (human); compound 10.0 µM): 24%
residual activity (RPS6KA5 KD1 KD2 (human); compound 1.0 µM): 93%
residual activity (RPS6KA5 KD1 KD2 (human); compound 10.0 µM): 69%
residual activity (DAPK2 (human); compound 1.0 µM): 87%
residual activity (DAPK2 (human); compound 10.0 µM): 43%
residual activity (PIM1 (human); compound 1.0 µM): 68%
residual activity (PIM1 (human); compound 10.0 µM): 18%
residual activity (RET (human); compound 1.0 µM): 43%
residual activity (RET (human); compound 10.0 µM): 11%
residual activity (RPS6KA2 KD1 KD2 (human); compound 1.0 µM): 58%
residual activity (RPS6KA2 KD1 KD2 (human); compound 10.0 µM): 22%
residual activity (PAK3 (human); compound 1.0 µM): 85%
residual activity (PAK3 (human); compound 10.0 µM): 96%
residual activity (MTOR (human); compound 1.0 µM): 104%
residual activity (MTOR (human); compound 10.0 µM): 77%
residual activity (ALK (human); compound 1.0 µM): 61%
residual activity (ALK (human); compound 10.0 µM): 29%
residual activity (STK24 (human); compound 1.0 µM): 57%
residual activity (STK24 (human); compound 10.0 µM): 21%
residual activity (LCK (human)): 70% and 89%
residual activity (MELK (human); compound 1.0 µM): 13%
residual activity (MELK (human); compound 10.0 µM): 0%
residual activity (VRK2 (human); compound 1.0 µM): 78%
residual activity (VRK2 (human); compound 10.0 µM): 36%
residual activity (IKBKB (human); compound 1.0 µM): 78%
residual activity (IKBKB (human); compound 10.0 µM): 43%
residual activity (MINK1 (human); compound 1.0 µM): 86%
residual activity (MINK1 (human); compound 10.0 µM): 50%
residual activity ([1]; compound 1.0 µM): 69%
residual activity ([1]; compound 10.0 µM): 27%
residual activity (TAOK1 (human); compound 1.0 µM): 69%
residual activity (TAOK1 (human); compound 10.0 µM): 25%
residual activity (NEK3 (human); compound 1.0 µM): 70%
residual activity (NEK3 (human); compound 10.0 µM): 79%
residual activity (MAP3K9 (human); compound 1.0 µM): 13%
residual activity (MAP3K9 (human); compound 10.0 µM): 4%
residual activity (BTK (human); compound 1.0 µM): 88%
residual activity (BTK (human); compound 10.0 µM): 57%
residual activity (RPS6KA4 KD1 KD2 (human); compound 1.0 µM): 76%
residual activity (RPS6KA4 KD1 KD2 (human); compound 10.0 µM): 36%
residual activity (EPHA3 (human); compound 1.0 µM): 75%
residual activity (EPHA3 (human); compound 10.0 µM): 48%
residual activity (DAPK3 (human); compound 1.0 µM): 87%
residual activity (DAPK3 (human); compound 10.0 µM): 45%
residual activity (PIM3 (human); compound 1.0 µM): 75%
residual activity (PIM3 (human); compound 10.0 µM): 59%
residual activity (PDGFRB (human); compound 1.0 µM): 99%
residual activity (PDGFRB (human); compound 10.0 µM): 96%
residual activity (CDK7 CCNH MNAT1 (human); compound 1.0 µM): 75%
residual activity (CDK7 CCNH MNAT1 (human); compound 10.0 µM): 24%
residual activity (MAPK14 (human); compound 1.0 µM): 96%
residual activity (MAPK14 (human); compound 10.0 µM): 85%
residual activity (TBK1 (human); compound 1.0 µM): 35%
residual activity (TBK1 (human); compound 10.0 µM): 11%
residual activity (PLK2 (human); compound 1.0 µM): 85%
residual activity (PLK2 (human); compound 10.0 µM): 61%
residual activity (CAMK4 (human); compound 1.0 µM): 73%
residual activity (CAMK4 (human); compound 10.0 µM): 24%
residual activity (LIMK1 (human); compound 1.0 µM): 64%
residual activity (LIMK1 (human); compound 10.0 µM): 30%
residual activity ([2]; compound 1.0 µM): 64%
residual activity ([2]; compound 10.0 µM): 24%
Compound: O=C1c2ccccc2-c2n[nH]c3cccc1c23
